Measurements as given in patent US20220313629A1, “TRANSIENT POTENTIAL MELASTATIN 8 (TRPM8) ANTAGONISTS AND RELATED METHODS” (MARSHALL UNIVERSITY RESEARCH CORPORATION, priority 2019, published 2022).
Values joined by “and” are separate entries in the source; they are usually repeats but may differ in a detail not shown here. Equal values may be shown once. Read-outs that look alike come from different tables or passages of the source.

Tests used:
rat and human TRPM8 = conditions: literature; read-out: IC50 values against menthol, icilin and cold activation at rat and human TRPM8; cited from earlier work
TRPM8 [1] = molecular target: T1, TRPM8 (Homo sapiens, UniProt Q7Z2W7); conditions: literature value; read-out: IC50 in whole-cell patch-clamp assay (reported); cited from earlier work
Target sequence in this assay (Q7Z2W7 whole entry): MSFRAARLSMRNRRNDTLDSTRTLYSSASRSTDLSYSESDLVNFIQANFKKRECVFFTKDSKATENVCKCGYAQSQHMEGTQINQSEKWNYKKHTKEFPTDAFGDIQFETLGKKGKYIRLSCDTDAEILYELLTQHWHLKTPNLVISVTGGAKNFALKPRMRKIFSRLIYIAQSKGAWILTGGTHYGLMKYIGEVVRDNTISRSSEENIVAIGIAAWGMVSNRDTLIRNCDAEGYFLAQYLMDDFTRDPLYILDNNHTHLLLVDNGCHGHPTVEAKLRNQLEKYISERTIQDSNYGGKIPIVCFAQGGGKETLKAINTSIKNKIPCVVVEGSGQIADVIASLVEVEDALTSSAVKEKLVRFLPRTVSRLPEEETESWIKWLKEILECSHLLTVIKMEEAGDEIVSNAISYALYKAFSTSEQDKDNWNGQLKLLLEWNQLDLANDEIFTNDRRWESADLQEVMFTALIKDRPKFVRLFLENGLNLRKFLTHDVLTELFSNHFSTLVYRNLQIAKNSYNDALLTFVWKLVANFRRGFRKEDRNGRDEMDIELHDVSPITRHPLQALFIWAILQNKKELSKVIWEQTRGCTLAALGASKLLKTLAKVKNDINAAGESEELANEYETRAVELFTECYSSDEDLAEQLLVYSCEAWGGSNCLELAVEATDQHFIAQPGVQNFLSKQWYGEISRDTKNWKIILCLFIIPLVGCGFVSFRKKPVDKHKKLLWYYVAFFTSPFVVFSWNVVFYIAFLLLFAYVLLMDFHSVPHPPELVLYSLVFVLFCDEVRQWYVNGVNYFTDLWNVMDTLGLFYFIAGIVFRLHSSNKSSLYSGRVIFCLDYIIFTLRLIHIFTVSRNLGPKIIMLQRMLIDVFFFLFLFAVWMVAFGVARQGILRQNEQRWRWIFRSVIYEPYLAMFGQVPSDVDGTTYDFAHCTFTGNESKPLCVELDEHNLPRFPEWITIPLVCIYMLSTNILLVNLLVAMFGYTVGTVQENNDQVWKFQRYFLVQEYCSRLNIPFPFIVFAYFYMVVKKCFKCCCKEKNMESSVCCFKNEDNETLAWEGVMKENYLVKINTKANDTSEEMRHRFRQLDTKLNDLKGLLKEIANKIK

TRPM8 [2] = molecular target: T1, TRPM8; conditions: cited from earlier work
Target sequence in this assay (Q7Z2W7 whole entry): as above

TRPM8 [3] = molecular target: T1, TRPM8; assay: TRPM8 antagonist activity by Fura-2 Ca2+ imaging in HEK-293 cells stably expressing human TRPM8; format: cell-based; conditions: inhibition of icilin (500 nM)-evoked Ca2+ entry; HEK-293 cells stably expressing hTRPM8; mean ± SEM, three independent experiments; read-out: Functional Activity hTRPM8 potency IC50 ± SEM
Target sequence in this assay (Q7Z2W7 whole entry): as above

human TRPA1 [4] = molecular target: T2, human TRPA1 (Homo sapiens, UniProt O75762); assay: TRPA1 agonist and antagonist Ca2+ flux assay (FLIPR, Fluo-8) in HEK293 cells stably expressing human TRPA1; format: cell-based; conditions: for % Activation Mean ± SEM (n = 5), TRPA1 antagonist data (Percentage Inhibition Normalized to EC80 Control): vs EC80 of AITC
human TRPA1 [5] = molecular target: T2, human TRPA1; conditions: vs. the effect of 80 μM AITC; read-out: IC50 at TRPA1 reported by Klionsky and colleagues; cited from earlier work
[6] = Stability in liver microsomes; format: in vitro ADME; conditions: mouse liver microsomes; CLint = k/P
Procedure: Stability in liver microsomes. Male CD-1 mouse liver microsomes (Lot#1710069) were purchased from XenoTech. The reaction mixture, minus NADPH, was prepared as described below. Compound 14 was added into the reaction mixture at a final concentration of 1 μM. The control compound, testosterone, was run simultaneously with Compound 14 in a separate reaction. An aliquot of the reaction mixture (without cofactor) was equilibrated in a shaking water bath at 37° C. for 3 minutes. The reaction was initiated by the addition of the cofactor, and the mixture was incubated in a shaking water bath at 37° C. Aliquots (100 μL) were withdrawn at 0, 10, 20, 30, and 60 minutes. Compound 14 and testosterone samples were immediately combined with 400 μL of ice-cold 50/50 acetonitrile (ACN)/H2O containing 0.1% formic acid and internal standard to terminate the reaction. The samples were then mixed and centrifuged to precipitate proteins. All samples were assayed by LC-MS/MS using electrospray ionization. […] are compared to the PARR at time 0 to determine the percent remaining at each time point. Half-lives and intrinsic clearance were calculated using GraphPad software, fitting to a single-phase exponential decay equation.
In vitro metabolic stability. Compound 14 was evaluated for metabolic stability in mouse liver microsomes by Absorption Systems (Exton, Pa.), by determining the percent remaining at 0, 10, 20, 30 and 60 minutes when incubated with mouse liver microsomes in the presence of NADPH. The half-life (t1/2) and in vitro intrinsic clearance (CLint) of Compound 14 was calculated, in addition to the control (testosterone).

TRPM8 [7] = molecular target: T1, TRPM8; assay: TRPM8 agonist (intrinsic) activity by Fura-2 Ca2+ imaging in HEK-293 cells stably expressing human TRPM8; format: cell-based; conditions: HEK-293 cells stably expressing hTRPM8; read-out: EC50 (agonist-evoked Ca2+ influx at hTRPM8)
Target sequence in this assay (Q7Z2W7 whole entry): as above

TRPM8 [8] = molecular target: T1, TRPM8; conditions: different cell type (CHO vs HEK) or species (human versus mouse); read-out: previously-reported EC50 values; cited from earlier work
Target sequence in this assay (Q7Z2W7 whole entry, species assumed): as the sequence (Q7Z2W7 whole entry) above

T2 sequence (O75762 whole entry): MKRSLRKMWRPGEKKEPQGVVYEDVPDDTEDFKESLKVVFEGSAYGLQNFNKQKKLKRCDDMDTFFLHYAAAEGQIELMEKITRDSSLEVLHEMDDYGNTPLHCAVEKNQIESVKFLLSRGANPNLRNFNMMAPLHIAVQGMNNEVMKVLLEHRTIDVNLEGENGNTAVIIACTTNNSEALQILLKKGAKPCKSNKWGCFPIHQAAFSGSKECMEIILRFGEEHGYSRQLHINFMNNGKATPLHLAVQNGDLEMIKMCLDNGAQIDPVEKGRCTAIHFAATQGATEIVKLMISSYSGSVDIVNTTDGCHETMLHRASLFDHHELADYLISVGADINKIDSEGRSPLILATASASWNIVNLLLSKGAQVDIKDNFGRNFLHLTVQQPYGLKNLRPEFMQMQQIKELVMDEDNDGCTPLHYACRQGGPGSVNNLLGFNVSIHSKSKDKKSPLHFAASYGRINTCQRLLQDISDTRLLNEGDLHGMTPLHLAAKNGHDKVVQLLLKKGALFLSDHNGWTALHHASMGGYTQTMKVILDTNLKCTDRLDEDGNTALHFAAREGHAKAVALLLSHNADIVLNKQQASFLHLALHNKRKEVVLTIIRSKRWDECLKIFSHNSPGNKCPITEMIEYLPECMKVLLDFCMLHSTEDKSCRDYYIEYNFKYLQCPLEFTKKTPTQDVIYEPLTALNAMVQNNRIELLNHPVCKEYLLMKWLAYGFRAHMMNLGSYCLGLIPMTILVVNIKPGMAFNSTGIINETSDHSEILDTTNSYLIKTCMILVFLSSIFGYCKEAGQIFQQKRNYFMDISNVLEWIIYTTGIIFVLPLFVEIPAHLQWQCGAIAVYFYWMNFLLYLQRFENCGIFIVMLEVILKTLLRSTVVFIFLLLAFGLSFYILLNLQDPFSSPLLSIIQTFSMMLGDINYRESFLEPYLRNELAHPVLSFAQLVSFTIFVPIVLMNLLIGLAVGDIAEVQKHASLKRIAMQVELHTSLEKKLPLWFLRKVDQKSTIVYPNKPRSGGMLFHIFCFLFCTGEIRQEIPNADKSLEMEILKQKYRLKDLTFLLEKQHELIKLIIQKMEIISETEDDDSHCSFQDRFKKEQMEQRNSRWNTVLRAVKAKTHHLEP

Question: Which IC50 (rat and human TRPM8) does the source give for `C[C@H](NC(=O)N1CCc2cccnc2[C@H]1c1ccc(C(F)(F)F)cc1)C(F)(F)F` [AMG2850] here?
Answer: 7 to 156 nM

Question: For `COc1cc(CN(CCN)C(=O)OC(C)c2ccccc2)ccc1OCc1ccccc1` (stereo not drawn) [PBMC], which IC50 (TRPM8 [1]) is on record?
Answer: 0.4 to 0.6 nM

Question: With `C[C@H](c1ccc(F)cc1)N(Cc1cccc(C(=O)O)c1)C(=O)c1cnc2ccccc2c1` [PF-05105679] as the compound, how does the IC50 (TRPM8 [2]; literature, read-out: IC50, inhibition of WS-12-mediated activation at human TRPM8) read?
Answer: 181 ± 7.21 nM

Question: And the IC50 (TRPM8 [2]; literature, read-out: IC50, inhibition of voltage-mediated activation at human TRPM8)?
Answer: 103 ± 29.4 nM

Question: And the IC50 (TRPM8 [2]; literature, read-out: hTRPM8 IC50 (reported Ca2+ flux activity))?
Answer: 181 nM

Question: Which IC50 (TRPM8 [3]) does the source give for `O=C(O)c1ccc(S(=O)(=O)N(Cc2ccc(OC(F)(F)F)cc2)c2ncc(C(F)(F)F)cc2Cl)cc1` [RQ-00203078, reference compound] here?
Answer: 2.96 nM and 3 nM

Question: And the IC50 (TRPM8 [2]; HEK cells expressing hTRPM8, read-out: IC50 previously reported against 30 μM menthol-evoked Ca2+ influx)?
Answer: ~8 nM

Question: What about the “reported potency at hTRPM8” value (TRPM8 [2]; literature) of the same compound?
Answer: < 10 nM

Question: Which results are given for `N.N.N.N.N.N.N.N.N.N.N.N.N.N.[Cl-].[Cl-].[Cl-].[Cl-].[Cl-].[Cl-].[O-2].[O-2].[Ru+3].[Ru+3].[Ru+4]` [Ruthenium Red, reference compound]?
Answer: % Activation Mean ± SEM (n = 5), TRPA1 antagonist data (Percentage Inhibition Normalized to EC80 Control) (human TRPA1 [4]; 3 nM): −6.0 ± 1.2%; % Activation Mean ± SEM (n = 5), TRPA1 antagonist data (Percentage Inhibition Normalized to EC80 Control) (human TRPA1 [4]; 10 nM): 1.9 ± 2.4%; % Activation Mean ± SEM (n = 5), TRPA1 antagonist data (Percentage Inhibition Normalized to EC80 Control) (human TRPA1 [4]; 30 nM): 5.8 ± 4.6%; % Activation Mean ± SEM (n = 5), TRPA1 antagonist data (Percentage Inhibition Normalized to EC80 Control) (human TRPA1 [4]; 100 nM): 15.7 ± 9.8%; % Activation Mean ± SEM (n = 5), TRPA1 antagonist data (Percentage Inhibition Normalized to EC80 Control) (human TRPA1 [4]; 300 nM): 91.1 ± 2.9%; % Activation Mean ± SEM (n = 5), TRPA1 antagonist data (Percentage Inhibition Normalized to EC80 Control) (human TRPA1 [4]; 1,000 nM): 100.9 ± 0.1%; % Activation Mean ± SEM (n = 5), TRPA1 antagonist data (Percentage Inhibition Normalized to EC80 Control) (human TRPA1 [4]; 3,000 nM): 100.9 ± 0.7%; % Activation Mean ± SEM (n = 5), TRPA1 antagonist data (Percentage Inhibition Normalized to EC80 Control) (human TRPA1 [4]; 10,000 nM): 100.8 ± 0.3%; IC50 (human TRPA1 [4]; AITC 10 μM, read-out: IC50, blockade of AITC-activated hTRPA1 responses): 162 ± 33 nM; IC50 (human TRPA1 [5]): 29 ± 6 nM

Question: With `C[C@]12CC[C@H]3[C@@H](CCC4=CC(=O)CC[C@@]43C)[C@@H]1CC[C@@H]2O` [Testosterone, reference compound] as the compound, how does the “CLint (mL/min/mg protein)” value [6] read?
Answer: 0.372 mL/min/mg protein

Question: Which EC50 (TRPM8 [7]) does the source give for `O=C1NC(c2cccc([N+](=O)[O-])c2)=CCN1c1ccccc1O` [icilin, 3-(2-hydroxyphenyl)-6-(3-nitrophenyl)-3,4-dihydropyrimidin-2(1H)-one] here?
Answer: ~70 nM and 74 nM

Question: What about the EC50 (TRPM8 [8]) of the same compound?
Answer: 120 to 200 nM
